Data from patent US20250017888A1, “COMPOUNDS FOR TREATING DISEASES ASSOCIATED WITH HYALURONAN OVERPRODUCTION” (THE ROYAL VETERINARY COLLEGE, priority 2021, published 2025).
pIC50: −log10 of the molar value.

Test system: hyaluronan export from chondrosarcoma cells
Assay: Inhibition of hyaluronan export / production in chondrosarcoma cells
Format: cell-based
Protocol: The hyaluronan synthase activity (Prehm, P. and Schumacher, U., Biochem. Pharmacol. 2004, 68, 1401-1410), the cytotoxicity of the drugs (O'Brien, J. et al., Eur. J. Biochem. 2000, 267, 5421-5426), proteoglycan synthesis rate, hyaluronan (Prehm, P. J. Rheumatol., 2005, 32, 690-696) and proteoglycan (Bjornsson, S. Anal. Biochem. 1993, 210, 282-291) were determined as described. The effect of the prenylflavonoids on the MRP5 export rate was measured with fluorescein diacetate as described (Schulz, T., Schumacher, U., and Prehm, P., J Biol. Chem., 2007, 282, 20999-21004). The determination of the IC50 values on the phosphodiesterase 5 was performed according to the instructions of BPS Bioscience. The culture of bovine chondrocytes in alginate beads and of explants of bovine cartilage was described previously (Deiters, B. and Prehm, P. Arthritis Res. Ther., 2008, 10, R8; Prehm, P. J. Rheumatol. 2005, 32, 690-696). Osteoarthritic reactions were induced in chondrocytes growing in alginate beads by incubation with medium containing 10 ng/ml of II-17 for 6 days, and in cartilage explants with 10 ng/ml of II-17 and 5 ng/ml of II-1α. The supernatants were withdrawn and stored at −20° C. for later analysis. The explants were weighed and extracted with 1 ml of 4 M guanidinium-HCl for 72 hours at 4° C. The proteoglycan concentrations were determined in the extracts.
Chondrosarcoma cells were plated on a 96 well microtiter plate and in the presence of increasing flavonoid concentrations. After 2 days the concentration of hyaluronan was determined in the culture supernatant.

COc1cc(O)c(CC=C(C)C)c(O)c1C(=O)/C=C/c1ccc(OC(=O)C[N+](C)(C)C)cc1.[Cl-] [Xantho-betaine, (E)-2-(4-(3-(2,4-dihydroxy-6-methoxy-3-(3-methylbut-2-en-1-yl)phenyl)-3-oxoprop-1-en-1-yl)phenoxy)-N,N,N-trimethyl-2-oxoethanaminium chloride]
pIC50: 4.74
inhibition of hyaluronan export (culture supernatant after 2 days, comparison with parent compound, particularly below 3 μM): slightly less effective than xanthohumol
